Test results published in paper PMC12647645, “Structural interactions of BWC0977 with Klebsiella pneumoniae topoisomerase IV and biochemical basis of its broad-spectrum activity” (Communications Biology, 2025).
≈ marks a conversion by molar mass, not a printed value.

Legend:
Human topo IIß = Human topo IIß (Homo sapiens, UniProt Q02880); assay: Human topo IIß decatenation assay; type: biochemical
Method: (§1) Human topo IIα (0.9 nM) and topo IIß (2.2 nM) decatenation assays were performed following the same protocol used for bacterial topoisomerase IV decatenation assays. The assay buffer was made of 50 mM Tris. HCl (pH 7.5), 125 mM NaCl, 10 mM MgCl2, 5 mM DTT, and 100 μg/mL albumin.

E. faecalis = test system: E. faecalis; design: method as in ref 7 (Arends et al., 2019); settings: ref 7 (Arends et al., 2019); cited from earlier work
[1] = molecular target: P. aeruginosa topoisomerase IV (Pseudomonas aeruginosa, UniProt Q9HUJ8+Q9HUK1); assay: Topoisomerase IV decatenation assay, P. aeruginosa; type: biochemical
Method: Topoisomerase IV decatenation reactions were performed using 2.5 nM E. coli enzyme and 60 ng kinetoplast DNA (kDNA) in an assay buffer containing 50 mM HEPES-KOH (pH 7.6), 100 mM potassium glutamate, 10 mM magnesium acetate, 10 mM DTT, 1 mM ATP, and 50 μg/mL albumin. Assays with P. aeruginosa topoisomerase IV (3 nM) were conducted in a similar buffer but with 50 mM HEPES-KOH (pH 7.9), 100 mM potassium glutamate, 6 mM magnesium acetate, 6 mM DTT, 1 mM ATP, 2 mM spermidine, and 50 μg/mL albumin. For S. aureus topoisomerase IV assay, the reactions contained 4 nM enzyme in an assay buffer composed of 50 mM Tris-HCl (pH 7.5), 5 mM MgCl₂, 5 mM DTT, 1.5 mM ATP, 350 mM potassium glutamate, and 0.05 mg/mL albumin. The procedures followed were consistent with those used in the supercoiling assays. Decatenated minicircles were resolved on 0.8% agarose gels, while the kDNA substrate remained in the wells. Gels were stained with 0.8 μg/mL ethidium bromide solution for 10 min, followed by destaining. DNA bands were visualized using a gel documentation system, and compound inhibition analysis was carried out using the same procedures described for the supercoiling assays.

P. aeruginosa ATCC 27853 = assay: MIC broth microdilution; type: cell-based; settings: Pseudomonas aeruginosa, ATCC27853
[2] = test system: E. coli MG1655 GyrA D82N, ParC D79N; assay: microbe, parasite or virus in culture; type: cell-based; settings: Escherichia coli
E. coli = settings: ref 8 (Flamm et al., 2017); cited from earlier work
[3] = test system: E. coli MG1655 GyrA R121K, ParC WT; assay: microbe, parasite or virus in culture; type: cell-based; settings: Escherichia coli
P. aeruginosa BAA 2794 = assay: microbe, parasite or virus in culture; type: cell-based; settings: Pseudomonas aeruginosa, BAA2794
[4] = test system: E. coli MG1655 (GyrA WT, ParC WT); assay: microbe, parasite or virus in culture; type: cell-based; settings: Escherichia coli
E. cloacae = settings: ref 7 (Arends et al., 2019); cited from earlier work
P. aeruginosa BAA 2797 = assay: microbe, parasite or virus in culture; type: cell-based; settings: Pseudomonas aeruginosa, BAA2797
S. aureus ATCC 29213 = assay: MIC broth microdilution; type: cell-based; settings: Staphylococcus aureus, ATCC29213
[5] = test system: E. coli MG1655 GyrA WT, ParC D79N; assay: microbe, parasite or virus in culture; type: cell-based; settings: Escherichia coli
K. pneumoniae = settings: ref 7 (Arends et al., 2019); cited from earlier work
E. coli BAA 2471 = assay: microbe, parasite or virus in culture; type: cell-based; settings: Escherichia coli, BAA2471
K. pneumoniae ATCC 13883 = assay: MIC broth microdilution; type: cell-based; settings: Klebsiella pneumoniae, ATCC13883
E. coli ATCC 25922 [6] = assay: MIC broth microdilution; type: cell-based; settings: Escherichia coli, ATCC25922
E. coli BAA 2469 = assay: microbe, parasite or virus in culture; type: cell-based; settings: Escherichia coli, BAA2469
[7] = test system: E. coli MG1655 GyrA M120A, ParC M118A; assay: microbe, parasite or virus in culture; type: cell-based; settings: Escherichia coli
K. pneumoniae BAA 2782 = assay: microbe, parasite or virus in culture; type: cell-based; settings: Klebsiella pneumoniae, BAA2782
[8] = test system: E. coli MG1655 GyrA D82N, ParC WT; assay: microbe, parasite or virus in culture; type: cell-based; settings: Escherichia coli
E. faecalis ATCC 29212 = assay: MIC broth microdilution; type: cell-based; settings: Enterococcus faecalis, ATCC29212
[9] = test system: E. coli MG1655 GyrA WT, ParC R119K; assay: microbe, parasite or virus in culture; type: cell-based; settings: Escherichia coli
E. coli ATCC 25922 [10] = assay: Resistant mutant generation by serial passage method; type: cell-based; settings: Escherichia coli, read-out: MIC, serial passage
S. aureus = settings: ref 8 (Flamm et al., 2017); cited from earlier work
A. baumannii ATCC 19606 = assay: MIC broth microdilution; type: cell-based; settings: Acinetobacter baumannii, ATCC19606
A. baumannii BAA 2885 = assay: microbe, parasite or virus in culture; type: cell-based; settings: Acinetobacter baumannii, BAA2885
Human topo IIα = Human topo IIα (Homo sapiens, UniProt P11388); assay: Human topo IIα decatenation assay; type: biochemical; settings: read-out: IC50 Human topo IIα decatenation
Human topo IIα, sequence (P11388 whole entry): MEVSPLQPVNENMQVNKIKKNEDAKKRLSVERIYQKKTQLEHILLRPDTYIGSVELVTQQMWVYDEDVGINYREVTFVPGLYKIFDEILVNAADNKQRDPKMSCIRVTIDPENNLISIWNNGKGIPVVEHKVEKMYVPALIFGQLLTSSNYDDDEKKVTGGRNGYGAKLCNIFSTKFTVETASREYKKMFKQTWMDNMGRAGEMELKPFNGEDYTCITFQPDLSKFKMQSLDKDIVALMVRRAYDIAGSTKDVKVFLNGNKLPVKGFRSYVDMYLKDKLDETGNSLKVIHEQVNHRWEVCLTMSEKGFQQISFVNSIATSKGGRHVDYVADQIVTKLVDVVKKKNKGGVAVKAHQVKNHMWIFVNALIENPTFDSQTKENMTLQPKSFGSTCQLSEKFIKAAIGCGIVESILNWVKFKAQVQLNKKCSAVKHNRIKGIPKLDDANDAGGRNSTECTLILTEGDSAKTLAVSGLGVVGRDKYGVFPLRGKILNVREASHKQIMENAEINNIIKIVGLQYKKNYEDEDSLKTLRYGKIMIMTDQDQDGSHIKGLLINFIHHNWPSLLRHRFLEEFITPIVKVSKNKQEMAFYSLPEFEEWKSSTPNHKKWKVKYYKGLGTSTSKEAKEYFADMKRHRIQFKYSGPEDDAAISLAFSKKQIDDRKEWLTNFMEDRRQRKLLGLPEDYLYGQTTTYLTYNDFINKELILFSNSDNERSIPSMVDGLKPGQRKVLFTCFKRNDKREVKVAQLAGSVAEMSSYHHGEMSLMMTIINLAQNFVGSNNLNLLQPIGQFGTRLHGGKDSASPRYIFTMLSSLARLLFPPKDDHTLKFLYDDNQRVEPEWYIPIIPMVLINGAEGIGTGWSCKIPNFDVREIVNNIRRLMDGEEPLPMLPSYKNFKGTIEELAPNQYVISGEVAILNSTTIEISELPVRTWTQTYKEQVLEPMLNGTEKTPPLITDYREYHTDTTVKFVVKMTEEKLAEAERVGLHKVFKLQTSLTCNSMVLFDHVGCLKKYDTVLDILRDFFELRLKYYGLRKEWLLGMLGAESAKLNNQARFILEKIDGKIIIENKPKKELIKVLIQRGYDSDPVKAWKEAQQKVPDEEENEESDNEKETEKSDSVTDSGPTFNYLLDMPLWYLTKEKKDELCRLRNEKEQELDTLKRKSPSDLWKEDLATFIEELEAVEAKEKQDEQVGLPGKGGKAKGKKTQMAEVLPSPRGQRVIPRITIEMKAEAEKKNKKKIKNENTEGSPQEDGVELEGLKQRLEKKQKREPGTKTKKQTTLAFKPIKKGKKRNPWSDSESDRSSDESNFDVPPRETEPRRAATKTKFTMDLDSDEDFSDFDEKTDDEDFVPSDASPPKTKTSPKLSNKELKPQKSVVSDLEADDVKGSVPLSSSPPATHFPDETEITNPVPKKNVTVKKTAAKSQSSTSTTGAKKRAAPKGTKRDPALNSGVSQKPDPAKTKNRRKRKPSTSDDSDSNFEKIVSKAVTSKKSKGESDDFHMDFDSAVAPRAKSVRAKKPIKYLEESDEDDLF
Method: as §1

K. pneumoniae KPNIH1 = assay: microbe, parasite or virus in culture; type: cell-based; settings: Klebsiella pneumoniae
P. aeruginosa gyrase = P. aeruginosa gyrase (Pseudomonas aeruginosa, UniProt P48372+Q9I7C2); assay: biochemical
P. aeruginosa gyrase, sequence (Q9I7C2 whole entry): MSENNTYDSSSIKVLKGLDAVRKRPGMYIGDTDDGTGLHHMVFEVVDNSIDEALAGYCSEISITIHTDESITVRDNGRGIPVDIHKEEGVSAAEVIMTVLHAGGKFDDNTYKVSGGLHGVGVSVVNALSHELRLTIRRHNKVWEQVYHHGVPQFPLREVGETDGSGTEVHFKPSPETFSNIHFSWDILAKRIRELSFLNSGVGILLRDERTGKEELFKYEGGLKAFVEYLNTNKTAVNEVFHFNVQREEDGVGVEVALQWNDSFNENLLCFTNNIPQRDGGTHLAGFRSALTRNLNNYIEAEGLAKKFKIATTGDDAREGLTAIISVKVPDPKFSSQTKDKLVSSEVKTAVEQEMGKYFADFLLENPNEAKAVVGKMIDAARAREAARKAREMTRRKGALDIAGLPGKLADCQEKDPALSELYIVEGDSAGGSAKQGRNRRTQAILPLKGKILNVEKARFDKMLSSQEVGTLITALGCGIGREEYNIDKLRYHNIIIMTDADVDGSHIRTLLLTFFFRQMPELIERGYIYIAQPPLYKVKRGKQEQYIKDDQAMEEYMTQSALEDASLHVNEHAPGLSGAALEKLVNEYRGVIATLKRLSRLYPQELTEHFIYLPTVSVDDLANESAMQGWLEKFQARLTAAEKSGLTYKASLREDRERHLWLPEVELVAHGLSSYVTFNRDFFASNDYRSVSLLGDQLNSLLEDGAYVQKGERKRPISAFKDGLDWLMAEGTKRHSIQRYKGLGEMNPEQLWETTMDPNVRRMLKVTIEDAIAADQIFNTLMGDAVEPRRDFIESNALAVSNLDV
P. aeruginosa gyrase, sequence (P48372 whole entry): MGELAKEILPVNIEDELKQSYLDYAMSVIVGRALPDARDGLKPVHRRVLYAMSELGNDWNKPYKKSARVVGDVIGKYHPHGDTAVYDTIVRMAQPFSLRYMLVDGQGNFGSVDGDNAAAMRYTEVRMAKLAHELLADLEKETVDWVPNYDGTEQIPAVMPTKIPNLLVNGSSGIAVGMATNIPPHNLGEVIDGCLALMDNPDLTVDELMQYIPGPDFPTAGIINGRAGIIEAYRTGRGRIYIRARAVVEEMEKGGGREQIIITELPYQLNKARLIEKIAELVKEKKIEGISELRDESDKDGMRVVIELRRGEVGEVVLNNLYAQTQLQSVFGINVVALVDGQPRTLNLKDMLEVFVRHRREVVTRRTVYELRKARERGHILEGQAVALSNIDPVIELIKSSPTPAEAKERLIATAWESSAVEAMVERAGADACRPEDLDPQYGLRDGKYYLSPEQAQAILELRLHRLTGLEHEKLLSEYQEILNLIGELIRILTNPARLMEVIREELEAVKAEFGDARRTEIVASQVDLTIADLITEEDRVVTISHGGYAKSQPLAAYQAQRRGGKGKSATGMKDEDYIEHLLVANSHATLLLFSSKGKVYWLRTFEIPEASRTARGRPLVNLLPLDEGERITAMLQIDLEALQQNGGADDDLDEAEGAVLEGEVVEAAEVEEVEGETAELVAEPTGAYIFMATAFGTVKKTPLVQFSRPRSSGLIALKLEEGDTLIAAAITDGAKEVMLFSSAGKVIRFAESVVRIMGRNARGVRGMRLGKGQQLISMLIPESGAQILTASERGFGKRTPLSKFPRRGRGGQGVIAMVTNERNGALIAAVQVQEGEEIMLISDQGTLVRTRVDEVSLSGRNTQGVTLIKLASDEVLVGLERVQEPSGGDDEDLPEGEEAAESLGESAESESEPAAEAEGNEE

K. pneumoniae BAA 2784 = assay: microbe, parasite or virus in culture; type: cell-based; settings: Klebsiella pneumoniae, BAA2784

Human topo IIß, sequence (Q02880 whole entry): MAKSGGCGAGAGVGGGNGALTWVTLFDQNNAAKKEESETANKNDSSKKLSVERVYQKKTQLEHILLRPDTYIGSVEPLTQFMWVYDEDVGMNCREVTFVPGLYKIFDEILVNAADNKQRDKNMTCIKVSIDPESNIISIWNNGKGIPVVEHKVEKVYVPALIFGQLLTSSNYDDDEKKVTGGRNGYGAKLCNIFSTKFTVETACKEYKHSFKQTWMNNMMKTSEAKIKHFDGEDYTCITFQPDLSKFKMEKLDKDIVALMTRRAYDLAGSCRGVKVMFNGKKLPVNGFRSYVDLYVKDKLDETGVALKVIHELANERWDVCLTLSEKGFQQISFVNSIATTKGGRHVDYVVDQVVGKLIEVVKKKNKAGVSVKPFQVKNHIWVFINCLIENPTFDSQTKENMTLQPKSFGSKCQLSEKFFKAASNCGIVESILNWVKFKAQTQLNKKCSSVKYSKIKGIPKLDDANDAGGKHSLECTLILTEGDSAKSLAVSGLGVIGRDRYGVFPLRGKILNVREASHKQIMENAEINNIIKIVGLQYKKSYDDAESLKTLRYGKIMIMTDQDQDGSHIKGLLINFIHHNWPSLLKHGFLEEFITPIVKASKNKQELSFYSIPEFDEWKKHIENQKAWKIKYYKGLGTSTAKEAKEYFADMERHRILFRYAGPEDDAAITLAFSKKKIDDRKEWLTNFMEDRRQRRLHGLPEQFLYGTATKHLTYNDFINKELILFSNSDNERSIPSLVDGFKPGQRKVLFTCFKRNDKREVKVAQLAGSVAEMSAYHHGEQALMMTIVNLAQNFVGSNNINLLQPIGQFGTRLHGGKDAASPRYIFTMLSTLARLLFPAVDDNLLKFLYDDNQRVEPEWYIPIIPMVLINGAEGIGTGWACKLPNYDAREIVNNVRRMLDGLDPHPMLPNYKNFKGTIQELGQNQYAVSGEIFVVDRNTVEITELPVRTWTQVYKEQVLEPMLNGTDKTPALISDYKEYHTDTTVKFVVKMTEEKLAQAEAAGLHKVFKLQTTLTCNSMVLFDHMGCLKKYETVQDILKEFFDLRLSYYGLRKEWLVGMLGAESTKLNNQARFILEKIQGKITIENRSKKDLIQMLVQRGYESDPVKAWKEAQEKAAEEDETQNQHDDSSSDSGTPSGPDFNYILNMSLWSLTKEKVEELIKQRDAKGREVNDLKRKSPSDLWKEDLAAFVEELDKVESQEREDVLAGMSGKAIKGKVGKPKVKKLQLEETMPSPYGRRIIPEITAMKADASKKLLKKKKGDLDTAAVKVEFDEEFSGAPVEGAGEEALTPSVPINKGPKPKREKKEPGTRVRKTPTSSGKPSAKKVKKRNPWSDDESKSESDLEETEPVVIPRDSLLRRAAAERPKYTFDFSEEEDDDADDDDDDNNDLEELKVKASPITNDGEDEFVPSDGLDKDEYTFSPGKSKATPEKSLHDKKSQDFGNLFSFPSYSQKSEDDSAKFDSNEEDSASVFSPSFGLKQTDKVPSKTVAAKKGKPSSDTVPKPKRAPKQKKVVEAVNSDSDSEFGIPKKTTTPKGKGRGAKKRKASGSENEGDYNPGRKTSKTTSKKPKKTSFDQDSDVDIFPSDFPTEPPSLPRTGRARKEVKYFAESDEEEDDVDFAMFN

In the case of `O=c1ccc2ncc(=O)n3c2n1C[C@H]3CN1CCC(NCc2cc3c(cn2)OCCC3)CC1` [Gepotidacin, reference compound], the IC50 (Human topo IIß) is given as greater than 200 µM, the “MIC90 against diverse global isolates” value (E. faecalis) is given as 2 mg/L (≈ 4.46 µM) and the IC50 [1] is given as 1.56 µM. The MIC (P. aeruginosa ATCC 27853) was 1 mg/L (≈ 2.23 µM), the MIC [2] was greater than 40 mg/L and the “MIC90 against diverse global isolates” value (E. coli) was 4 mg/L (≈ 8.92 µM). For the same molecule, the MIC [3] was 0.13 mg/L (≈ 0.29 µM), the MIC (P. aeruginosa BAA 2794) was 0.5 mg/L (≈ 1.11 µM) and the MIC [4] was 0.47 mg/L (≈ 1.05 µM). The “MIC90 against diverse global isolates” value (E. cloacae) was 16 mg/L (≈ 35.7 µM), the MIC (P. aeruginosa BAA 2797) was 1 mg/L (≈ 2.23 µM) and the MIC (S. aureus ATCC 29213) was 0.125 mg/L (≈ 0.279 µM). The MIC [5] was 0.83 mg/L (≈ 1.85 µM), the “MIC90 against diverse global isolates” value (K. pneumoniae) was 16 mg/L (≈ 35.7 µM) and the MIC (E. coli BAA 2471) was 2 mg/L (≈ 4.46 µM). For the same molecule, the MIC (K. pneumoniae ATCC 13883) was 1 mg/L (≈ 2.23 µM), the MIC (E. coli ATCC 25922 [6]) was 0.5 mg/L (≈ 1.11 µM) and the MIC (E. coli BAA 2469) was 0.5 mg/L (≈ 1.11 µM). For the same molecule, the MIC [7] was 0.63 mg/L (≈ 1.4 µM), the MIC (K. pneumoniae BAA 2782) was 1 mg/L (≈ 2.23 µM) and the MIC [8] was 0.42 mg/L (≈ 0.936 µM). For the same molecule, the MIC (E. faecalis ATCC 29212) was 1 mg/L (≈ 2.23 µM), the MIC [9] was 0.42 mg/L (≈ 0.936 µM) and the MIC (E. coli ATCC 25922 [10]; ATCC25922, 24 h) was 0.25 mg/L (≈ 0.557 µM). The MIC (E. coli ATCC 25922 [10]; ATCC25922, 288 h) was 1.25 mg/L (≈ 2.79 µM), the “MIC90 against diverse global isolates” value (S. aureus) was 0.5 mg/L (≈ 1.11 µM) and the MIC (A. baumannii ATCC 19606) was 2 mg/L (≈ 4.46 µM). For the same molecule, the MIC (A. baumannii BAA 2885) was 2 mg/L (≈ 4.46 µM), the IC50 (Human topo IIα) was greater than 200 µM and the MIC (K. pneumoniae KPNIH1) was 8 mg/L (≈ 17.8 µM). The IC50 (P. aeruginosa gyrase) was 0.35 µM and the MIC (K. pneumoniae BAA 2784) was 1 mg/L (≈ 2.23 µM).
